The values below are quoted from earlier work in publication PMC3280530, “Marine Compounds Selectively Induce Apoptosis in Female Reproductive Cancer Cells but Not in Primary-Derived Human Reproductive Granulosa Cells” (Marine Drugs, 2012).

For this data set, the system named is MCF-7 breast carcinoma cells. Details: method as in PMID 19491143. The following applies: MCF-7, 4 h exposure, tyrindoleninone in an impure extract; read-out: concentration giving 50% reduction in cell viability; cited from earlier work.

Take `CSC1=Nc2cc(Br)ccc2C1=O` [Tyrindoleninone, tyrindoleninone]: the IC50 was 391 µM.
